Test results reported in patent publication US20230101903A1, “COMPOUNDS USEFUL AS ANTI-VIRAL AGENTS” (NATURE CRETE PHARMACEUTICALS PC, priority 2020, published 2023).
In brackets after ≈: the same amount, converted by molar mass. Where two headings read alike, the source gives them in different places.

Experiments:
[1] = system: influenza virus A/FM/1/47/H1N1; assay: Real-Time PCR of newly synthesized viral RNA (M1 genome copies) in infected MDCK-II cells; type: cell-based, human Influenza A/FM/1/47/H1N1 strain; conditions: 12 hours
Procedure: (§1) All assays in Examples 1, 2, 4 and 5 were performed with the human Influenza A/FM/1/47/H1N1 strain, and canine MDCK-II cells, whilst in Example 7 VERO E6 monkey kidney cells were used.
MDCK-II cells were plated in 12-well plates. After overnight incubation, the cells were washed with phosphate-buffer saline (PBS) and infected with influenza virus A/FM/1/47/H1N1) for 2 hours at 37° C.
The inoculum was then removed and the cells were incubated with MEM containing various concentrations of Compound A for 12 hours.

[2] = system: SARS-CoV-2 (isolate 30-287); assay: microbe, parasite or virus in culture; type: cell-based; conditions: Severe acute respiratory syndrome coronavirus 2, Vero C1008, VERO E6 cells, 96 hours, read-out: IC50, synthesis of new viral RNA
Influenza A/FM/1/47/H1N1 [3] = assay: virus titer of supernatants of infected MDCK-II cells (plaque titration); type: cell-based, human Influenza A/FM/1/47/H1N1 strain
Procedure: as §1
MDCK-II cells in Minimal Essential Medium (MEM) were seeded into a 6-well plate and incubated at 37° C. The following day, the cells were infected with influenza A/FM/1/47/H1N1 and incubated at 37° C. for 2 hours, followed by washing extensively with serum free MEM.
The infected cells were then cultured in media supplemented with varying concentrations of Compound A at 37° C. for 24 to 48 hours. Supernatants of the infected cells, containing the newly synthesised virions, were harvested and titrated in MDCK-II cells. Upon plaque formation, the infected cells were washed with phosphate-buffered saline (PBS) and fixed with paraformaldehyde. Cell monolayers were stained with crystal violet and observed microscopically.

Influenza A/FM/1/47/H1N1 [4] = assay: plaque-reduction assay in MDCK-II cells; type: cell-based, human Influenza A/FM/1/47/H1N1 strain; conditions: 72 hours, all concentrations above 200 ng/mL
Procedure: as §1
The antiviral activity of p-cymene in Influenza A/FM/1/47/H1N1 was assayed in a plaque-reduction assay (expressed in forming plaques).
Canine MDCK-II cells were seeded into 6-well plastic plates and cultured at 37° C. under 5% CO2 for 24 hours. The MDCK-II cells were then inoculated with Influenza A/FM/1/47/H1N1 for 2 hours, after which the infected cells were washed and cultured for 72 hours at 37° C. under 5% CO2 in the presence of different concentrations of p-cymene in Minimum Essential Medium (MEM). Ribavirin was used as a control at a concentration of 25 μM.
After incubation, the virus-infected cells were observed microscopically. After 3 days of infection, cells were fixed with paraformaldehyde and cell monolayers were stained with crystal violet.

[5] = system: influenza virus A/FM/1/47; assay: intracellular viral nucleoprotein (NP) by Western Blot Analysis in infected cells; type: cell-based, human Influenza A/FM/1/47/H1N1 strain; conditions: p-cymene 200 ng/mL; 7, 10 and 24 hours after infection
Procedure: as §1
Intracellular viral nucleoprotein (NP) concentration was quantified by Western Blot Analysis at 7, 10 and 24 hours after infection.
A six-well culture plate was seeded with cells, which were then incubated at 37° C. for 24 hours under 5% CO2. The cells were infected with influenza virus A/FM/1/47 at 37° C. for 1 hour and then p-cymene was added (200 ng/mL). The cells were harvested at the indicated time periods (7h, 10h and 24h). The lysates were incubated for 20 min on ice and then centrifuged at 14,000×g for 10 min at 4° C. The supernatants were collected and equal amounts of proteins were resolved by sodium dodecyl sulfate (10%) polyacrylamide gel electrophoresis.

[6] = pre-incubation (2 hours before infection)

`CCCOCC(CC)c1ccc(C)cc1` (stereo not shown) [Compound A] was tested, and the “synthesis of new viral RNA” value ([1]; all concentrations tested) was “inhibits”, the “viral M1 genome copy numbers” value ([1]; nuclear RNA) was “decreased” and the IC50 ([2]; co-incubation) was 38 µg/mL. The IC50 [2, 6] was 9 µg/mL (≈ 43.6 µM), the virus titer (Influenza A/FM/1/47/H1N1 [3]; MDCK-II cells, 24 and 48 hpi, varying concentrations) was “significantly decreased virus titer” and the “anti-viral action (conclusion of the in vitro studies)” value (Influenza A/FM/1/47/H1N1 [3]; compared with ribavirin) was “significant anti-viral action, comparable with that of ribavirin”.
With `Cc1ccc(C(C)C)cc1` [p-cymene] the “plaque formation (number of forming plaques)” value (Influenza A/FM/1/47/H1N1 [4]) was “significant, dose-dependent decrease of plaque formation”, the “amount of intracellular viral nucleoprotein (NP)” value [5] was “significantly decreased” and the IC50 ([2]; co-incubation) was 83 µg/mL. It also gave an IC50 [2, 6] of 59 µg/mL (≈ 440 µM).
